From patent publication US10221197B2, “Phosphatidylinositol 3-kinase inhibitors” (Gilead Sciences, Inc., priority 2014, dated 2019)
pIC50: −log10 of the molar value. Where a name gives a salt, the structure may show the parent alone. Read-outs that look alike come from different tables or passages of the source.

Key:
Assay type in all cases: biochemical
[1] = target: PI3Kβ (Homo sapiens (Human), UniProt P42338); test: TR-FRET enzymatic assay of PI3K isoforms (PI3Kβ); conditions: TR-FRET, 2×Km ATP, 2 μM PIP2, incubated for 30 minutes at 25° C.; read-out: β IC50
Procedure: (§1) The compounds of formula (I) were characterized for their enzymatic activity against the PI3K isoforms. Certain compounds of the present application, including certain compounds of formula (II) and (III) were also characterized for their enzymatic activity against PI3K isoforms. The activities were measured using a time-resolved fluorescence resonance energy transfer (TR-FRET) assay.

[2] = target: PI3Kδ (Homo sapiens (Human), UniProt O00329); test: TR-FRET enzymatic assay of PI3K isoforms (PI3Kδ); conditions: 2×Km ATP, 2 μM PIP2, incubated for 30 minutes at 25° C., read-out: δ IC50
Procedure: as §1

[3] = target: PI3Kγ (Homo sapiens (Human), UniProt P48736); test: TR-FRET enzymatic assay of PI3K isoforms (PI3Kγ); conditions: read-out: γ IC50
Procedure: as §1

[4] = TR-FRET, 2×Km ATP, 2 μM PIP2, PI3Kγ at 2 nM, incubated for 30 minutes at 25° C.

Sequence of PI3Kδ (O00329 whole entry, canonical isoform): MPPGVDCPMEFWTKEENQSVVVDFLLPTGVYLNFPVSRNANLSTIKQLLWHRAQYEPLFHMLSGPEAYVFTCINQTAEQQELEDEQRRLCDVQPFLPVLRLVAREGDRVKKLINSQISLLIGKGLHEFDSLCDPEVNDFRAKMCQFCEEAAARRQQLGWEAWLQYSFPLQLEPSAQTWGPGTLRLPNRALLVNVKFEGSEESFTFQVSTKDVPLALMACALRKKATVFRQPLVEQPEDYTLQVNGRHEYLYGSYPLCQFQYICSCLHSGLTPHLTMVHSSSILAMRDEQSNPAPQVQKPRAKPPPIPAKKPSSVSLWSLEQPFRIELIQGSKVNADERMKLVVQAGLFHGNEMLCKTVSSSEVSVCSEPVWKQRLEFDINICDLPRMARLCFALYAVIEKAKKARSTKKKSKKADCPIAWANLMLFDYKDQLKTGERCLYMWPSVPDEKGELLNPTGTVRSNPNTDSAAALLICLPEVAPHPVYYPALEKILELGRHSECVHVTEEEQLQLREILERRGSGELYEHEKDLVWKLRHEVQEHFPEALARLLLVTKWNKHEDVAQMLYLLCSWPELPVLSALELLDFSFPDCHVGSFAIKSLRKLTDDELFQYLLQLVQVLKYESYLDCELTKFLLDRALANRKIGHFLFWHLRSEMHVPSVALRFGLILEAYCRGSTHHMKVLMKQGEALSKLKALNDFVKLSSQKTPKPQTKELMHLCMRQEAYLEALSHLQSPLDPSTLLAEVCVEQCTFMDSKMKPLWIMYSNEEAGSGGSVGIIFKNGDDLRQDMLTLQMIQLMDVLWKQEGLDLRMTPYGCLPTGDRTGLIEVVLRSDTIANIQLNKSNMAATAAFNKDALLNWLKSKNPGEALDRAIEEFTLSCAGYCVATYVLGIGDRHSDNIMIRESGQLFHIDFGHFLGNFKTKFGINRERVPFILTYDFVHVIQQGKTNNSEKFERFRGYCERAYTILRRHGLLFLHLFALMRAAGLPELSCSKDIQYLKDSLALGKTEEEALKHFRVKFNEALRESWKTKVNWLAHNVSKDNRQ
Sequence of PI3Kδ (P27986 whole entry partner, canonical isoform): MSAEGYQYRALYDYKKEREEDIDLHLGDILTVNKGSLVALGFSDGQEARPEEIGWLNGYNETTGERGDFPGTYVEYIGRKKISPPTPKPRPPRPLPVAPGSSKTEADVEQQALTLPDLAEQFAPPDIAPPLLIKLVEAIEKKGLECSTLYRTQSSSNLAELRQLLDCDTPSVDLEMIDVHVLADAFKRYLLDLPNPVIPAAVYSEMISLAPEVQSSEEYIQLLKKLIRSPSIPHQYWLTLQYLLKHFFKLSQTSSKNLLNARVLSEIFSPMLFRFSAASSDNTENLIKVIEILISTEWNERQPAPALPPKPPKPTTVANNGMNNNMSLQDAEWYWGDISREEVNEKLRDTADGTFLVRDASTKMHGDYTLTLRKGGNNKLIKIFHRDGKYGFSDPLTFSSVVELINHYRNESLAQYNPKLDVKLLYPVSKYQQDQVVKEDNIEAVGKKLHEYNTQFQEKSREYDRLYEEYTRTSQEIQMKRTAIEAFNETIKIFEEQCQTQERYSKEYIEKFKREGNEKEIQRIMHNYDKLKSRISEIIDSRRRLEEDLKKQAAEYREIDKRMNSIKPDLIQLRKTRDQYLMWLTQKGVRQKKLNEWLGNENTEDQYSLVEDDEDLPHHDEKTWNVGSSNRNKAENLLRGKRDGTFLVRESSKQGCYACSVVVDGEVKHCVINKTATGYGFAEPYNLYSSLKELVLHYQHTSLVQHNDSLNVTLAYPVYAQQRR
Sequence of PI3Kγ (P48736 whole entry, canonical isoform): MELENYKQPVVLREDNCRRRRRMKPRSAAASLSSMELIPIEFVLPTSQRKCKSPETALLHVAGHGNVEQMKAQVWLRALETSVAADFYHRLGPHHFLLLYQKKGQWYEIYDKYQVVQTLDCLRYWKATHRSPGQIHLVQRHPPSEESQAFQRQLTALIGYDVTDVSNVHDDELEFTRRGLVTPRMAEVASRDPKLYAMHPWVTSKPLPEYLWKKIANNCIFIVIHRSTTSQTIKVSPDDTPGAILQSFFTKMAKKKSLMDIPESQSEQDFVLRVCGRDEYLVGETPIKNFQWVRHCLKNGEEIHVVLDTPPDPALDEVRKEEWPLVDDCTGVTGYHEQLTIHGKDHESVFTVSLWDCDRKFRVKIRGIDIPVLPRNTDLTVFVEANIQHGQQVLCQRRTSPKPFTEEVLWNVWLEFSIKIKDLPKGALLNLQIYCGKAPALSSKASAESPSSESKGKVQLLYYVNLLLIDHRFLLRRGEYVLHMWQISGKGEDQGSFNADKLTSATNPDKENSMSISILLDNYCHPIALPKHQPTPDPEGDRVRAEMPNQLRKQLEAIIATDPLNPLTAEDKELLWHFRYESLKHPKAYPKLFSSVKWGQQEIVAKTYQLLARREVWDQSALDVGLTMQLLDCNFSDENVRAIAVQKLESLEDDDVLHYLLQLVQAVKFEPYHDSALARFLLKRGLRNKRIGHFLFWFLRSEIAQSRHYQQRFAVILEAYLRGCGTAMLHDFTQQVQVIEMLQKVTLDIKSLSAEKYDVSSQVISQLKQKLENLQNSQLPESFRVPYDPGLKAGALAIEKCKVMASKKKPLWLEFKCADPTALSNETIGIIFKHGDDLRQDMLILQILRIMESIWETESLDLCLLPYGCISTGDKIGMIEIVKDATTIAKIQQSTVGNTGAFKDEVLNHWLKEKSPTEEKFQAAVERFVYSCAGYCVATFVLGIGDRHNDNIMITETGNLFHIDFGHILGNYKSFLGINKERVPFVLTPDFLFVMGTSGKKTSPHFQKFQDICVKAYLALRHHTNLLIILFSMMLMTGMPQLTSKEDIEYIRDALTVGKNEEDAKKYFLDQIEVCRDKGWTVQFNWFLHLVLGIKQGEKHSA
Sequence of PI3Kγ (Q8WYR1 whole entry partner, canonical isoform): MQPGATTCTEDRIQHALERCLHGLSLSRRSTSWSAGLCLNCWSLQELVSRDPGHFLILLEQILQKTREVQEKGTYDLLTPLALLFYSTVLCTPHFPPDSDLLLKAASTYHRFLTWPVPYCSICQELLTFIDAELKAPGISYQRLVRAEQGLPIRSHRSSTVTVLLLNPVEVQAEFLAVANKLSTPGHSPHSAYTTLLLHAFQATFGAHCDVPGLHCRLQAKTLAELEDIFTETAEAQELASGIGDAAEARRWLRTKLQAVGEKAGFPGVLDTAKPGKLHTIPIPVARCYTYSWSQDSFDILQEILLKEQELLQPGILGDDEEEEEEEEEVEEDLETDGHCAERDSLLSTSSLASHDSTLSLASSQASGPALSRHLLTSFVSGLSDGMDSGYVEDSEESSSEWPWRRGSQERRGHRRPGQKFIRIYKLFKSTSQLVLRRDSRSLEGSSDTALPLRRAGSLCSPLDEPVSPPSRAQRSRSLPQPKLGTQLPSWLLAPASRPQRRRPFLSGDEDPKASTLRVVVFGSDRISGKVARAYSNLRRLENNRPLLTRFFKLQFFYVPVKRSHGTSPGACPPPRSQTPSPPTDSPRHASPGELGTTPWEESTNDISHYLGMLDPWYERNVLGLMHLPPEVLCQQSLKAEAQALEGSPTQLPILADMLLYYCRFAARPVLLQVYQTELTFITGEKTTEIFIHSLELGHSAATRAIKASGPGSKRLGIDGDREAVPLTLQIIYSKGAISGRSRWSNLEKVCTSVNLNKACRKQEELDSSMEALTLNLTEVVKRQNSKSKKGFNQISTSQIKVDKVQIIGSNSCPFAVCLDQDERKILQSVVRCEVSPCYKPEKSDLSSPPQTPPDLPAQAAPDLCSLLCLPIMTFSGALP
Sequence of PI3Kβ (P42338 whole entry, canonical isoform): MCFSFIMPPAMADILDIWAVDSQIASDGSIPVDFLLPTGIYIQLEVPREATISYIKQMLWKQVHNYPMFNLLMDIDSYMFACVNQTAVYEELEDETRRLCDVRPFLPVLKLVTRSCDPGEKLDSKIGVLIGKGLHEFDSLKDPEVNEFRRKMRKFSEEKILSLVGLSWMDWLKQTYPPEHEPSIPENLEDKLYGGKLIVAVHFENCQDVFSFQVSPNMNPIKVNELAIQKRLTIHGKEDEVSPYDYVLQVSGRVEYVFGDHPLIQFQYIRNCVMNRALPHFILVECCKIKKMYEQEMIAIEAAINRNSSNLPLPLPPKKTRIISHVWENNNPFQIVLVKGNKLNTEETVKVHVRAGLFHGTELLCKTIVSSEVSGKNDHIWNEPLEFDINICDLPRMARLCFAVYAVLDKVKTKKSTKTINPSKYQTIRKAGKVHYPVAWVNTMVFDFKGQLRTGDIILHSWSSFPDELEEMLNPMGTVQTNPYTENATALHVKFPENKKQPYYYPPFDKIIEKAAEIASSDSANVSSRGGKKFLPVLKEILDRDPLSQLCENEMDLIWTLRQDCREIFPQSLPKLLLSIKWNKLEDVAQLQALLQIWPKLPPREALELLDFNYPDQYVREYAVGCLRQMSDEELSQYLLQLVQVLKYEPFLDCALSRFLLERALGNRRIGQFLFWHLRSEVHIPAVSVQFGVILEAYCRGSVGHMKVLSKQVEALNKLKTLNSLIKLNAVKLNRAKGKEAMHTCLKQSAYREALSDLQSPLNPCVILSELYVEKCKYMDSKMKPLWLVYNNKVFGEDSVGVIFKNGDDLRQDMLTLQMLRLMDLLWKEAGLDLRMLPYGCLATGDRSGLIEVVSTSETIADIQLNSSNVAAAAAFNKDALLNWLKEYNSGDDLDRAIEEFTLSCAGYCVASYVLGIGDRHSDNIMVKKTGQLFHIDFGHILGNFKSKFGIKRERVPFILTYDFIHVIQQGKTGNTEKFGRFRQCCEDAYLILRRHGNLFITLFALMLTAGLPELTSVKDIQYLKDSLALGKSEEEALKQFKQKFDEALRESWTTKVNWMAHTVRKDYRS
Sequence of PI3Kβ (P27986 whole entry partner, canonical isoform): as the sequence (P27986 whole entry partner, canonical isoform) above

SMILES | pIC50 [1] | pIC50 [2] | pIC50 [3, 4] | pIC50 [3]
C[C@H](Nc1ncnc(N)c1C#N)c1nc2cccc(Cl)c2c(=O)n1-c1cccc(NC(=O)NCCN(C)C)c1 [Compound 116, (S)-1-(3-(2-(1-((6-amino-5-cyanopyrimidin-4-yl)amino)ethyl)-5-chloro-4-oxoquinazolin-3(4H)-yl)phenyl)-3-(2-(dimethylamino)ethyl)urea, trifluoroacetic acid salt] | 8.70 | 8.40 | < 5.00 | –
C[C@H](Nc1ncnc(N)c1C#N)c1nc2cccc(Cl)c2c(=O)n1-c1cccc(NC(=O)Nc2cccnc2)c1 [Compound 119, (S)-1-(3-(2-(1-((6-amino-5-cyanopyrimidin-4-yl)amino)ethyl)-5-chloro-4-oxoquinazolin-3(4H)-yl)phenyl)-3-(pyridin-3-yl)urea, trifluoroacetic acid salt] | 8.52 | 8.30 | 5.85 | –
C[C@H](Nc1ncnc(N)c1C#N)c1nc2cccc(Cl)c2c(=O)n1-c1cccc(NC(=O)NC(C)(C)C)c1 [Compound 124, (S)-1-(3-(2-(1-((6-amino-5-cyanopyrimidin-4-yl)amino)ethyl)-5-chloro-4-oxoquinazolin-3(4H)-yl)phenyl)-3-(tert-butyl)urea] | 7.85 | 8.05 | 5.48 | –
CC(O)CNC(=O)Nc1cccc(-n2c([C@H](C)Nc3ncnc(N)c3C#N)nc3cccc(Cl)c3c2=O)c1 (stereo partly drawn) [Compound 129, 1-(3-(2-((S)-1-((6-amino-5-cyanopyrimidin-4-yl)amino)ethyl)-5-chloro-4-oxoquinazolin-3(4H)-yl)phenyl)-3-(2-hydroxypropyl)urea] | 8.05 | 8.40 | 5.25 | –
O=C(NCCCO)Nc1cccc(-n2c([C@H](COCc3ccccc3)Nc3ncnc4[nH]cnc34)nc3cccc(Cl)c3c2=O)c1 [Compound 131, (R)-1-(3-(2-(1-((9H-purin-6-yl)amino)-2-(benzyloxy)ethyl)-5-chloro-4-oxoquinazolin-3(4H)-yl)phenyl)-3-(3-hydroxypropyl)urea] | 7.37 | 7.39 | – | < 5.00
CCNC(=O)Nc1cccc(-n2c([C@H](COCc3ccccc3)Nc3ncnc(N)c3C#N)nc3cccc(Cl)c3c2=O)c1 [Compound 132, (R)-1-(3-(2-(1-((6-amino-5-cyanopyrimidin-4-yl)amino)-2-(benzyloxy)ethyl)-5-chloro-4-oxoquinazolin-3(4H)-yl)phenyl)-3-ethylurea] | 7.68 | 8.00 | 5.06 | –
COCCCNC(=O)Nc1cccc(-n2c([C@H](C)Nc3ncnc4[nH]cnc34)nc3cccc(Cl)c3c2=O)c1 [Compound 135, (S)-1-(3-(2-(1-((9H-purin-6-yl)amino)ethyl)-5-chloro-4-oxoquinazolin-3(4H)-yl)phenyl)-3-(3-methoxypropyl)urea] | 7.80 | 7.46 | 5.46 | –
CCNC(=O)Nc1cccc(-n2c([C@H](C)Nc3ncnc(N)c3C(=O)O)nc3cccc(Cl)c3c2=O)c1 [Compound 136, (S)-4-amino-6-((1-(5-chloro-3-(3-(3-ethylureido)phenyl)-4-oxo-3,4-dihydroquinazolin-2-yl)ethyl)amino)pyrimidine-5-carboxylic acid] | 5.74 | 6.21 | < 5.00 | –
C[C@H](Nc1ncnc(N)c1C#N)c1nc2cccc(Cl)c2c(=O)n1-c1cccc(NC(=O)NCCC(=O)O)c1 [Compound 137, (S)-3-(3-(3-(2-(1-((6-amino-5-cyanopyrimidin-4-yl)amino)ethyl)-5-chloro-4-oxoquinazolin-3(4H)-yl)phenyl)ureido)propanoic acid] | 7.48 | 7.92 | 5.12 | –
C[C@H](Nc1ncnc(N)c1C#N)c1nc2cccc(Cl)c2c(=O)n1-c1cccc(NC(=O)NC(C)(C)C(=O)O)c1 [Compound 139, (S)-2-(3-(3-(2-(1-((6-amino-5-cyanopyrimidin-4-yl)amino)ethyl)-5-chloro-4-oxoquinazolin-3(4H)-yl)phenyl)ureido)-2-methylpropanoic acid] | 7.52 | 7.89 | 5.09 | –

More lines, in order of rising pIC50 [1], values ahead:

pIC50 [1] | pIC50 [2] | pIC50 [3, 4] | pIC50 [3] | SMILES
8.05 | 8.15 | 5.32 | – | CC(C)NC(=O)Nc1cccc(-n2c([C@H](C)Nc3ncnc(N)c3C#N)nc3cccc(Cl)c3c2=O)c1 [Compound 120, (S)-1-(3-(2-(1-((6-amino-5-cyanopyrimidin-4-yl)amino)ethyl)-5-chloro-4-oxoquinazolin-3(4H)-yl)phenyl)-3-isopropylurea]
8.05 | 8.40 | 5.25 | – | C[C@H](Nc1ncnc(N)c1C#N)c1nc2cccc(Cl)c2c(=O)n1-c1cccc(NC(=O)NCCCO)c1 [Compound 128, (S)-1-(3-(2-(1-((6-amino-5-cyanopyrimidin-4-yl)amino)ethyl)-5-chloro-4-oxoquinazolin-3(4H)-yl)phenyl)-3-(3-hydroxypropyl)urea]
8.10 | 8.40 | 5.54 | – | CCCNC(=O)Nc1cccc(-n2c([C@H](C)Nc3ncnc(N)c3C#N)nc3cccc(Cl)c3c2=O)c1 [Compound 126, (S)-1-(3-(2-(1-((6-amino-5-cyanopyrimidin-4-yl)amino)ethyl)-5-chloro-4-oxoquinazolin-3(4H)-yl)phenyl)-3-propylurea]
8.10 | 8.30 | 5.24 | – | C[C@H](Nc1ncnc(N)c1C#N)c1nc2cccc(Cl)c2c(=O)n1-c1cccc(NC(=O)NCCF)c1 [Compound 127, (S)-1-(3-(2-(1-((6-amino-5-cyanopyrimidin-4-yl)amino)ethyl)-5-chloro-4-oxoquinazolin-3(4H)-yl)phenyl)-3-(2-fluoroethyl)urea]
8.15 | 8.52 | 5.66 | – | C[C@H](Nc1ncnc(N)c1C#N)c1nc2cccc(Cl)c2c(=O)n1-c1cccc(NC(=O)NC2CCC2)c1 [Compound 123, (S)-1-(3-(2-(1-((6-amino-5-cyanopyrimidin-4-yl)amino)ethyl)-5-chloro-4-oxoquinazolin-3(4H)-yl)phenyl)-3-cyclobutylurea]
8.15 | 8.15 | 5.47 | – | C[C@H](Nc1ncnc(N)c1C#N)c1nc2cccc(Cl)c2c(=O)n1-c1cccc(NC(=O)NC2CC2)c1 [Compound 125, (S)-1-(3-(2-(1-((6-amino-5-cyanopyrimidin-4-yl)amino)ethyl)-5-chloro-4-oxoquinazolin-3(4H)-yl)phenyl)-3-cyclopropylurea]
8.22 | 8.30 | 5.29 | – | C[C@H](Nc1ncnc(N)c1C#N)c1nc2cccc(Cl)c2c(=O)n1-c1cccc(NC(=O)NC(C)(C)CCO)c1 [Compound 140, (S)-1-(3-(2-(1-((6-amino-5-cyanopyrimidin-4-yl)amino)ethyl)-5-chloro-4-oxoquinazolin-3(4H)-yl)phenyl)-3-(4-hydroxy-2-methylbutan-2-yl)urea]
8.22 | 8.22 | 5.80 | – | C[C@H](Nc1ncnc(N)c1C#N)c1nc2cccc(Cl)c2c(=O)n1-c1cccc(NC(=O)NCC(C)(C)CO)c1 [Compound 141, (S)-1-(3-(2-(1-((6-amino-5-cyanopyrimidin-4-yl)amino)ethyl)-5-chloro-4-oxoquinazolin-3(4H)-yl)phenyl)-3-(3-hydroxy-2,2-dimethylpropyl)urea]
8.30 | 8.00 | 5.22 | – | COCCCNC(=O)Nc1cccc(-n2c([C@H](C)Nc3ncnc(N)c3C#N)nc3cccc(Cl)c3c2=O)c1 [Compound 134, (S)-1-(3-(2-(1-((6-amino-5-cyanopyrimidin-4-yl)amino)ethyl)-5-chloro-4-oxoquinazolin-3(4H)-yl)phenyl)-3-(3-methoxypropyl)urea]
8.40 | 8.22 | 5.08 | – | C[C@H](Nc1ncnc(N)c1C#N)c1nc2cccc(Cl)c2c(=O)n1-c1cccc(NC(=O)NCCO)c1 [Compound 117, (S)-1-(3-(2-(1-((6-amino-5-cyanopyrimidin-4-yl)amino)ethyl)-5-chloro-4-oxoquinazolin-3(4H)-yl)phenyl)-3-(2-hydroxyethyl)urea]
8.40 | 8.15 | 5.28 | – | C[C@H](Nc1ncnc(N)c1C#N)c1nc2cccc(Cl)c2c(=O)n1-c1cccc(NC(=O)NC(C)(C)CO)c1 [Compound 138, (S)-1-(3-(2-(1-((6-amino-5-cyanopyrimidin-4-yl)amino)ethyl)-5-chloro-4-oxoquinazolin-3(4H)-yl)phenyl)-3-(1-hydroxy-2-methylpropan-2-yl)urea]
8.52 | 8.10 | 6.00 | – | C[C@H](Nc1ncnc(N)c1C#N)c1nc2cccc(Cl)c2c(=O)n1-c1cccc(NC(=O)Nc2ccccc2)c1 [Compound 118, (S)-1-(3-(2-(1-((6-amino-5-cyanopyrimidin-4-yl)amino)ethyl)-5-chloro-4-oxoquinazolin-3(4H)-yl)phenyl)-3-phenylurea]
8.52 | 8.52 | 5.80 | – | C[C@H](Nc1ncnc(N)c1C#N)c1nc2cccc(Cl)c2c(=O)n1-c1cccc(NC(=O)NC2CCCC2)c1 [Compound 121, (S)-1-(3-(2-(1-((6-amino-5-cyanopyrimidin-4-yl)amino)ethyl)-5-chloro-4-oxoquinazolin-3(4H)-yl)phenyl)-3-cyclopentylurea]
8.52 | 8.40 | 5.70 | – | C[C@H](Nc1ncnc(N)c1C#N)c1nc2cccc(Cl)c2c(=O)n1-c1cccc(NC(=O)NC2CCCCC2)c1 [Compound 122, (S)-1-(3-(2-(1-((6-amino-5-cyanopyrimidin-4-yl)amino)ethyl)-5-chloro-4-oxoquinazolin-3(4H)-yl)phenyl)-3-cyclohexylurea]
